Experimental data taken from patent US6383773B2, “Penicillin conversion” (Massachusetts Institute of Technology, priority 1998, dated 2002).

Assays:
[1] = biological target: T1, S. clavuligerus expandase (Streptomyces clavuligerus, UniProt P18548); assay: Penicillin ring expansion by cell-free S. clavuligerus expandase extracts, paper disc-agar diffusion bioassay; format: biochemical; conditions: 4 mg/ml extract protein; for Ring expansion, size of zones of inhibition: 2 mg/ml substrate (penicillin mX and octanoyl-6-APA 3 mg/ml), 2 hours; for Inhibition Zone Diameter: 2 hours of reaction, 250 μl in bioassay (E. coli ESS, penicillinase)
T1 construct: endogenous in cells; host or cells: S. clavuligerus mutant NP1, crude cell-free extract
Protocol: Preparation of Cell-free Extracts: Fermentation broths were centrifuged at 8,000×g and 4° C. for 10 min. Pellets were washed twice using 50 mM Tris-HCI supplemented with 0.1 mM dithiothreitol (DTT). The cells were resuspended in the same buffer and disrupted by four 25-sec. sonication treatments (power setting 5 and duty cycle 50%), in an ice-water bath using a Branson 350 sonifier (Branson Sonic Power Co., Danbury, Conn.). Cell debris was removed by centrifugation (14,000×g, 30 min., 4° C.). The resulting extracts containing 8-10 mg protein/ml were placed on ice and utilized immediately. Protein concentrations were measured using the Bio-Rad protein assay (Bio-Rad, Hercules, Calif.). Bovine serum albumin was used as standard.
Ring Expansion Reaction: We defined ring expansion reaction conditions as modifications of the standard reaction mixture for expandase reactions described by Maeda et al. (Maeda et al., Enzyme Microb. Technol. 17:231-34, 1995) except that penicillin G was used a substrate instead of penicillin N. Additions were made following the order established by Shen et al. (Shen et al., Enzyme Microb. Technol. 6:402-404, 1984. Reaction mixtures were incubated in test tubes (cell-free extract) or 250 ml baffled flasks (resting cells) at 220 rpm, 30° C. Reactions containing the protein extract were stopped at various times (see Table 1 and Figure Legends) by mixing 0.5 ml of assay solution with 0.5 ml of methanol. In the case of resting cells, samples were centrifuged to remove cells and supernatants were transferred to new tubes. Expandase activity was detected by paper disc-agar diffusion bioassay.
Detection of Expandase Activity: As mentioned above, expandase activity was detected by assaying production of a growth-inhibitory zone in a paper disc-agar diffusion bioassay. Paper discs were saturated with 200 μl of the reaction mixture (cell-free extracts or supernatant (resting cells) as follows. Two discs were superimposed and four 50 μl samples were applied. After each application, the discs were allowed to dry for 20 min at 37° C. under a laminar hood and, finally, they were placed on LB (1% tryptone, 0.5% NaCl, 0.5% yeast extract, 0.1% glucose) 0.8% agar medium seeded with E. coli ESS (a β-lactam supersensitive mutant), and the plates were incubated overnight at 37° C. The formation of DAOG and/or other cephalosporin(s) was determined by including 50,000 IU/ml of penicillinase (Difco Bacto penase concentrate, Difco Laboratories, Detroit, Mich.) in the assay plates. This penicillinase is a narrow spectrum β-lactamase that attacks penicillins but not cephalosporins. The diameters of zones of growth inhibition were measured and quantified with a calibration curve using DAOG as standard.
Ring Expansion of Other Penicillins by Cell-free Extracts: We tested our reaction conditions for their ability to support ring expansion on other penicillin substrates and found detectable expansion with each of the 15 substrates that we tested. […] The reactions contained 4 mg/ml extract (protein concentration), 50 mM Tris-HCl pH 7.4, 1.8 mM FeSO4, 1.28 mM α-ketoglutarate, 8 mM MgSO4, 8 mM KCl, 4 mM ascorbic acid, 14 mM DTT, and 2 mg/ml substrate (except for penicillin mX and octanoyl-6-APA, which were used at 3 mg/ml). Samples were centrifuged at 12K rpm for 5 minutes after 2 hours of reaction. 250 μl of reaction mixture was used in each bioassay.

C. acremonium expandase = biological target: T2, C. acremonium expandase (Hapsidospora chrysogena, UniProt P11935); conditions: cited from earlier work; for substrate for expandase activity: crude extracts (Kohsaka et al. 1976; Demain et al.); for ring expansion: partially purified enzyme (Kupka et al. 1983)
T2 sequence (P11935 1-332): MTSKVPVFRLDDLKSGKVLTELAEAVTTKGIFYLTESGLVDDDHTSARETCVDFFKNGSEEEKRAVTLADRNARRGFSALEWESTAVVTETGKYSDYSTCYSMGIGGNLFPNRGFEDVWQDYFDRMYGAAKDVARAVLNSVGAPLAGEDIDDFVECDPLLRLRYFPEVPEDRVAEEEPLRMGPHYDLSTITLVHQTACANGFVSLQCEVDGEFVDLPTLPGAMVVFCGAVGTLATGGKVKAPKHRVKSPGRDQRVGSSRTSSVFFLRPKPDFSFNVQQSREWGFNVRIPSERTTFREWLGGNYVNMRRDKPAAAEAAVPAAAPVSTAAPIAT

[2] = biological target: T1, S. clavuligerus expandase; conditions: literature reports (Jensen 1982; Dotzlaf 1989; Yeh 1994; Maeda 1995); cited from earlier work
[3] = system: S. clavuligerus or C. acremonium expandase enzymes; conditions: cited from earlier work; for ability to expand: in vitro (Bowers 1984; Baldwin 1987; Shibata 1996); for in vitro substrate: suggested by Baldwin et al. 1987, subsequent work failed to confirm
[4] = biological target: T3, expandase from N. lactamdurans (Amycolatopsis lactamdurans, UniProt Q03047); assay: Ring expansion by cell-free extracts of S. lividans containing pUL702-202a (Example 7); format: biochemical; conditions: S. lividans pUL702-202a cell-free extract 6 mg/ml protein, substrate 5.6 mM
T3 construct: made in house; host or cells: S. lividans 1326 transformed with pUL702-202a, crude cell-free extract
Protocol: (§1) Microorganism, Medium and Culture Conditions: S. lividans 1326 was used in all experiments. Cultures were grown in 250 ml baffled flasks containing 40 ml of MST medium. Each flask was inoculated with 50 μl of a spore suspension (prepared and stored at −80° C. in 20% glycerol) and incubated at 30° C., 250 rpm, for 48 h.
(§2) Plasmids: The plasmid pUL702-202a was a gift from J. F. Martin (University of León, Spain). This vector harboured a 4.3 Kb BglII fragment containing the epimerase and expandase genes from Nocardia lactamdurans inserted at the BglII site on pIJ702. The plasmid pHJ11 was constructed by cloning a 3 Kb BglII fragment containing the expandase gene from S. clavuligerus 3585 into pIJ702 at the BglII site.
(§3) Ring Expansion Reaction: The ring expansion mixture contained 1.8 mM FeSO4, 1.28 mM α-ketoglutarate, 6 mg/ml protein (cell-free extract), 8 mM KCl, 8 mM MgSO4, 14 mM DTT and 50 mM TrisHCl (pH 7.4) in a final volume of 2.5 ml. Substrate concentration was 5.6 mM. Additions were made following the order established by Shen et al. (Enzyme Microb. Technol. 6:402-404, 1984). Reaction mixtures were incubated in test tubes at 220 rpm, 30° C. At different times, 0.5 ml samples were taken and the reaction was stopped by adding 0.5 ml of methanol. […] Biotransformation activity was detected by paper disc-agar diffusion bioassay. […]

[5] = biological target: T4, expandase from S. clavuligerus (Streptomyces clavuligerus, UniProt P18548); assay: Ring expansion by cell-free extracts of S. lividans transformant pHJ11 (Example 7); format: biochemical; conditions: pHJ11 cell-free extract 6 mg/ml protein, substrate 5.6 mM, after 4 h of reaction
T4 construct: made in house; host or cells: S. lividans 1326 transformed with pHJ11, crude cell-free extract
Protocol: as §1, §2, §3

T1 sequence (P18548 whole entry, the tested form may be a part): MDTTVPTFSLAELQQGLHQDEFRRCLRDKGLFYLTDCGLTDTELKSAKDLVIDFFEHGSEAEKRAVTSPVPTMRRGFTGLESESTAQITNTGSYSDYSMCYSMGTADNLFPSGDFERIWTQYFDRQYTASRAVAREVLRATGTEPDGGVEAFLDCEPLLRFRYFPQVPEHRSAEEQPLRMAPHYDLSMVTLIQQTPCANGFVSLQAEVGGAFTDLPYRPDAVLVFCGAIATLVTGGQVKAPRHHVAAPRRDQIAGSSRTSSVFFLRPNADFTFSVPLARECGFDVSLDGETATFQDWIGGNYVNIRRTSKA
T4 sequence (P18548 whole entry): as the sequence (P18548 whole entry, the tested form may be a part) above
T3 sequence (Q03047 whole entry): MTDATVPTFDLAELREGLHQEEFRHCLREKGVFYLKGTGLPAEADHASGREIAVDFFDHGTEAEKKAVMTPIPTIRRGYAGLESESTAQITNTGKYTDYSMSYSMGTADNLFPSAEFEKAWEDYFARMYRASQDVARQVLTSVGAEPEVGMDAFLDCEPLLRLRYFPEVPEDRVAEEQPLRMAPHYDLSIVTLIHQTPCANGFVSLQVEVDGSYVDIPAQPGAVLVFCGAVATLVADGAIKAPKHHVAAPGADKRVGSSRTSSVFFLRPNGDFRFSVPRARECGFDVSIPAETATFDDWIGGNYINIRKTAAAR

## CC1(C)SC2C(NC(=O)Cc3cccs3)C(=O)N2C1C(=O)O (stereo not shown) [2-Thiophenylacetyl-6-APA, 2-thiophenylacetyl-6-APA]
[1]
  Ring expansion, size of zones of inhibition: Large zones of inhibition
[1]; 2 mg/ml substrate
  Inhibition Zone Diameter: 32 mm

## CC1(C)S[C@@H]2[C@H](N)C(=O)N2[C@H]1C(=O)O [6-aminopenicillanic acid]
C. acremonium expandase
  substrate for expandase activity: not

## CC1(C)S[C@@H]2[C@H](NC(=O)CCCCC(=O)O)C(=O)N2[C@H]1C(=O)O [Adipyl-6-APA, adipyl-6-APA]
[1]
  Ring expansion, size of zones of inhibition: intermediate size zones
[1]; 2 mg/ml substrate
  Inhibition Zone Diameter: 20 mm
[2]
  ring expansion: not
C. acremonium expandase
  ring expansion: does not expand
[3]
  ability to expand: some ability

## CC1(C)S[C@@H]2[C@H](NC(=O)[C@H](N)c3ccccc3)C(=O)N2[C@H]1C(=O)O [Ampicillin, ampicillin]
[1]
  Ring expansion, size of zones of inhibition: intermediate size zones
[1]; 2 mg/ml substrate
  Inhibition Zone Diameter: 17 mm
[2]
  ring expansion: not
C. acremonium expandase
  ring expansion: does not expand
[4]
  ring expansion: expansion was only observed when penicillin G was used as substrate
[5]
  production of cephalosporins: about 1.5 μg/ml

## CCCC(=O)NC1C(=O)N2C1SC(C)(C)C2C(=O)O (stereo not shown) [Butyryl-6-APA, butyryl-6-APA]
[1]
  Ring expansion, size of zones of inhibition: intermediate size zones
[1]; 2 mg/ml substrate
  Inhibition Zone Diameter: 17.5 mm
[2]
  ring expansion: not

## CCCCCCCCCC(=O)NC1C(=O)N2C1SC(C)(C)C2C(=O)O (stereo not shown) [Decanoyl-6-APA, decanoyl-6-APA]
[1]
  Ring expansion, size of zones of inhibition: smaller zones
[1]; 2 mg/ml substrate
  Inhibition Zone Diameter: 7 mm

## CCCCCCC(=O)NC1C(=O)N2[C@@H]1SC(C)(C)[C@@H]2C(=O)O (stereo partly shown) [Heptanoyl-6-APA, heptanoyl-6-APA]
[1]
  Ring expansion, size of zones of inhibition: intermediate size zones
[1]; 2 mg/ml substrate
  Inhibition Zone Diameter: 16.5 mm

## CCCCCC(=O)NC1C(=O)N2[C@@H]1SC(C)(C)[C@@H]2C(=O)O (stereo partly shown) [Hexanoyl-6-APA, hexanoyl-6-APA]
[1]
  Ring expansion, size of zones of inhibition: intermediate size zones
[1]; 2 mg/ml substrate
  Inhibition Zone Diameter: 19.5 mm

## CCCCCCCCC(=O)NC1C(=O)N2C1SC(C)(C)C2C(=O)O (stereo not shown) [Nonanoyl-6-APA, nonanoyl-6-APA]
[1]
  Ring expansion, size of zones of inhibition: smaller zones
[1]; 2 mg/ml substrate
  Inhibition Zone Diameter: 10.5 mm

## CCCCCCCC(=O)N[C@@H]1C(=O)N2[C@@H]1SC(C)(C)[C@@H]2C(=O)O [Octanoyl-6-APA, octanoyl-6-APA]
[1]
  Ring expansion, size of zones of inhibition: intermediate size zones
[1]; 3 mg/ml substrate
  Inhibition Zone Diameter: 16 mm

## CC/C=C/CC(=O)N[C@@H]1C(=O)N2[C@@H]1SC(C)(C)[C@@H]2C(=O)O [Penicillin F, penicillin F]
[1]
  Ring expansion, size of zones of inhibition: intermediate size zones
[1]; 2 mg/ml substrate
  Inhibition Zone Diameter: 21 mm

## CC1(C)S[C@@H]2[C@H](NC(=O)COc3ccccc3)C(=O)N2[C@H]1C(=O)O [Penicillin V, penicillin V]
[1]
  Ring expansion, size of zones of inhibition: smaller zones
[1]; 2 mg/ml substrate
  Inhibition Zone Diameter: 7.5 mm
[2]
  ring expansion: not

## CC1(C)S[C@@H]2[C@H](NC(=O)Cc3ccc(O)cc3)C(=O)N2[C@H]1C(=O)O [Penicillin X, penicillin X]
[1]
  Ring expansion, size of zones of inhibition: Large zones of inhibition
[1]; 2 mg/ml substrate
  Inhibition Zone Diameter: 30.5 mm

## CCCCC(=O)NC1C(=O)N2[C@@H]1SC(C)(C)[C@@H]2C(=O)O (stereo partly shown) [Valeryl-6-APA, valeryl-6-APA]
[1]
  Ring expansion, size of zones of inhibition: intermediate size zones
[1]; 2 mg/ml substrate
  Inhibition Zone Diameter: 15 mm

## CC1(C)S[C@@H]2[C@H](NC(=O)Cc3cccc(C(=O)O)c3)C(=O)N2[C@H]1C(=O)O [m-carboxyphenylacetyl-6-APA]
[2]
  ring expansion: not
[3]
  in vitro substrate: at very low levels

## CCCCCCCC(=O)N[C@@H]1C(=O)N2[C@@H]1SC(C)(C)[C@@H]2C(=O)O [penicillin K]
[2]
  ring expansion: not

## CC1(C)S[C@@H]2[C@H](NC(=O)CCC[C@@H](N)C(=O)O)C(=O)N2[C@H]1C(=O)O [penicillin N]
[2]
  ring expansion: expands the ring
C. acremonium expandase
  substrate for expandase activity: substrates

## CCCCCC(=O)N[C@@H]1C(=O)N2[C@@H]1SC(C)(C)[C@@H]2C(=O)O [penicillin dihydroF]
[2]
  ring expansion: not

## D-carboxymethylcysteinyl-6-APA
[3]
  ability to expand: some ability

## D-glutamyl-6-APA
[2]
  ring expansion: not
[3]
  in vitro substrate: at very low levels

## glutamyl-6-APA
[3]
  in vitro substrate: at very low levels
